Test results from EP1196154B1, “INHIBITION OF RENAL UPTAKE OF RADIOMOLECULES WITH A COMBINATION OF LYSINE AND ARGININE” (MALLINCKRODT, INC., priority 1999, dated 2001).
“And” between values parts separate entries of the source, which are not always exact repeats. Identical values can stand only once.

How the values were obtained:
kidneys [1] = test: Renal uptake of [^111In-DTPA-D-Phe^1]octreotide in rats with amino acid administration; assay type: in vivo; settings: for inhibition at 400 mg/kg: Rattus norvegicus
Protocol: Furthermore, it has been described by De Jong et al. in J. Nucl. Med 37(8): 1388-1392 (1996) that uptake in the rat kidneys of the [^111In-DTPA-D-Phe^1]octreotide can be inhibited by 50% by intravenous administration of the amino acid L-lysine alone (400 mg/kg). In a further article by Bernard et al. in J. Nucl.
L-arginine alone gave a reduction of 20-30% at an equimolar dose. In human studies 15, 21 and 40% reduction of kidney uptake of [^111In-DTPA-D-Phe^1]octreotide was reached using a dose of 25, 50 and 75 g L-lysine, respectively. […] Hyperkalemia may result in acute and life-threatening cardiotoxicity.

kidneys [2] = settings: Bernard et al.; cited from earlier work
[3] = Serum potassium level in patients during amino acid infusion; assay type: in vivo, humans
Protocol: In an experiment of the invention 11 patients received an infusion over 4 hours of a solution containing 25 g L-lysine and 25 g L-arginine in 1000 mL (Lys/Arg; see MATERIALS, paragraph A. for exact formulation). The potassium level of these patients was measured in serum at t=0 hours and after 0.5, 1, 2, 4 and 5 hours.
As a control 6 patients received 75 g L-lysine in 1500 mL during 4 hours (see MATERIALS, paragraph C. for exact formulation).

[4] = Vomiting and symptoms in patients during amino acid infusion; assay type: in vivo, humans
Protocol: 26 patients received 1 to 5 therapeutic doses of 1-10 GBq ^90Y-DOTA,Tyr^3-octreotide, with concomitant infusion of a 2030 mL cocktail of various amino acids in 4 hours, starting 30 min. before the administration of the radiopharmaceutical (see MATERIALS, paragraph B. for exact details). In 11 of these 26 patients (42%), [being 20 of 84 treatments (24%)] one or more episodes of vomiting occurred, up to 30 episodes of severe vomiting per treatment.
In one of these 11 patients the vomiting was so severe during the 2 treatments with the above described regimen, that it was decided to use an infusion with 50 g of L-lysine instead of the infusion with the cocktail of various amino acids concomitant with their 3rd and 4th therapy with ^90Y-DOTA,Tyr^3-octreotide.
8 patients received multiple therapeutic doses of 7-11 GBq ^111In-pentetreotide. All received once a concomitant infusion of a 2030 mL cocktail of various amino acids in 4 hours, starting 30 min. before the administration of the radiopharmaceutical (see MATERIALS, paragraph B. for exact details). In 4 of these 8 patients (50%) vomiting occurred.
In these same 8 patients only 3 episodes […] of vomiting occurred during 22 treatments with 7-11 GBq ^111In-pentetreotide while they received 25 or 50 grams of L-lysine in 500 to 2000 mL (see MATERIALS, paragraph C. for exact details) over 4 hours, starting 30 min. before administration of the radiopharmaceutical, as concomitant infusions.
In an experiment of the invention 11 patients received an infusion over 4 hours of a solution containing 25 g L-lysine and 25 g L-arginine in 1000 mL (Lys/Arg; see MATERIALS, paragraph A. for exact formulation). Thirty min. after the start of the infusion they received a diagnostic dose of 220 MBq ^111Inpentetreotide. Ten patients had no symptoms during the infusion, in particular no vomiting. […] During the Lys/Arg infusion they vomited twice.
Five patients received the Lys/Arg infusion in the same manner as described above, but they received a therapeutic dose of 1850 MBq [^177Lu-DOTA,Tyr^3]octreotate, 30 min. after the start of the Lys/Arg infusion. None of these 5 patients had any symptoms at all, in particular no vomiting.
Until now the Lys/Arg infusion, 1000 mL in 4 hours concomitant with therapeutic doses of radioactive labelled peptides, has been administered to more than 30 patients, in total more than 80 occasions. Vomiting occurs in less than 5% of the occasions, and if it occurs it is most probably due to other causes.

kidneys [5] = test: Kidney uptake of ^111In-pentetreotide in patients with amino acid infusion (planar scintigraphy and dosimetry); assay type: in vivo, humans; settings: for reduction of kidney uptake of [^111In-DTPA-D-Phe^1]octreotide: human studies
Protocol: A 1000 mL infusion containing 25 g L-lysine and 25 g L-arginine (Lys/Arg; see MATERIALS, paragraph A. for exact formulation) was administered intravenously to patients during 4 hours, starting 30 minutes prior to administration of the radioligand. One radioligand was [^111In-DTPA-D-Phe^1]octreotide (^111In-pentetreotide, OctreoScan®, Mallinckrodt Medical, Petten, The Netherlands) in a diagnostic amount of 220 MBq (9 patients). Each patient was also investigated on a separate occasion with 220 MBq ^111In-pentetreotide, but without any infusion. The other radioligand was [^177Lu-DOTA,Tyr^3]octreotate in a therapeutic amount of 1850 MBq (5 patients). Each patient was also investigated on a separate occasion with 1850 MBq [^177Lu-DOTA,Tyr^3]-octreotate, but without any infusion. The control experiment (5 patients) consisted of infusion of 1000 mL neutral infusion fluid without the amino acids (NaCl 0.45% plus Glucose 2.5%)over 4 hours, starting 30 min. prior to the injection of 220 MBq ^111In-pentetreotide.
24 Hours post infusion the uptake of the radioligand in the kidneys, spleen and liver was measured using planar scintigraphy and dosimetry, and for each patient the ratio between uptake in these organs during infusion with Lys/Arg and without Lys/Arg was calculated (Figures 1, 2 and 3).
At least 5 patients received one of the following amino acid preparations: • 1. AA (2030 mL cocktail of various amino acids; see MATERIALS, paragraph B, for the source and details) • 2. 25 g L-lysine in 500 mL (see MATERIALS, paragraph C, for exact formulation) • 3. 50 g lysine in 2000 mL (see MATERIALS, paragraph C, for exact formulation) • 4. 75 g lysine in 1500 mL (see MATERIALS, paragraph C, for exact formulation) • 5. 25 g L-lysine and 25 g L-arginine in 1000 mL (invention), (Lys/Arg; see MATERIALS, paragraph A. for exact formulation).
The preparations were given intravenously over 4 hours starting 30 minutes before treatment with the radioligand started. The radioligand was ^111Inpentetreotide, either in a diagnostic amount of 220 MBq, or in a therapeutic amount, 7 - 11 GBq. Each patient was his or her own control. The control consisted of treatment with the radioligand but without an amino acid preparation.
At 24 and 48 hours post infusion the ratio between tissue uptake in the left kidney in patients receiving an amino acid composition and the controls was determined by planar scintigraphy and dosimetry.

[6] = Osmolarity of infusion fluids; assay type: physicochemical; settings: infusion fluid as prepared

NCCCC[C@@H](N)C(=O)O [D-lysine]
inhibition at 400 mg/kg (kidneys [1]): 50%
reducing the rat renal uptake of [^111In-DTPA-D-Phe^1]octreotide and ^90Y-DOTA,Tyr^3-octreotide (kidneys [2]): capable of reducing

Lys/Arg
patients having a maximum potassium value of 6.0 mmol/L ([3]; human, in vivo): one out of eleven
occasions on which vomiting occurs ([4]; human, in vivo): less than 5%
patients who suffered from vomiting ([4]; human, in vivo): none
tolerability on 4 later occasions in the same patient ([4]; human, in vivo): without any problems
treatments in which vomiting occurred ([4]; human, in vivo): 8%

N=C(N)NCCC[C@H](N)C(=O)O [L-arginine]
reduction of renal uptake of [^111In-DTPA-D-Phe^1]octreotide in rats (kidneys [1]; alone, at an equimolar dose (to lysine 400 mg/kg)): 20-30%

NCCCC[C@H](N)C(=O)O [L-lysine]
inhibition at 400 mg/kg (kidneys [1]): 50%
hyperkalemia ([3]; 75 g L-lysine (Table 2), 25 g L-lysine plus 25 g L-arginine (Table 1)): severe hyperkalemia
patients with a maximum potassium level above the critical value of 6.0 mmol/L ([3]; 75 g in 1500 mL): 3 out of 6
maximum potassium (K) level in serum ([3]; 75 g in 1500 mL over 4 hours, single patients 12-17): 5.2 mmol/L and 6.8 mmol/L and 6.7 mmol/L and 5.4 mmol/L and 5.0 mmol/L and 6.3 mmol/L
patients with severe hyperkalemia ([3]; humans, total dose of 75 g): 50%
episodes of vomiting during treatments ([4]; 25 or 50 grams in 500 to 2000 mL over 4 hours, 7-11 GBq ^111In-pentetreotide, 3 episodes during 22 treatments, 8 patients): 9%
tolerability / toxicity ([4]; human studies, doses of 25 and 50 g): well tolerated without any toxicity noted
vomiting (conclusion from EXAMPLES 4, 5 and 6) ([4]; infusion over 4 hours): seldomly observed
episodes of vomiting ([4]; one patient, 50 g, 3rd therapy with ^90Y-DOTA,Tyr^3-octreotide): one
vomiting ([4]; one patient, 50 g, 4th therapy with ^90Y-DOTA,Tyr^3-octreotide): no vomiting at all
[^111In-DTPA-D-Phe^1]octreotide uptake reduction in the left kidney, rank among amino acid preparations (Figure 4) (kidneys [5]; 24 and 48 hours post infusion, 75 g L-lysine, 25 g L-lysine plus 25 g L-arginine): highest uptake reduction
reduction of kidney uptake of [^111In-DTPA-D-Phe^1]octreotide (kidneys [5]; dose of 25 g): 15%
reduction of kidney uptake of [^111In-DTPA-D-Phe^1]octreotide (kidneys [5]; dose of 50 g): 21%
reduction of kidney uptake of [^111In-DTPA-D-Phe^1]octreotide (kidneys [5]; dose of 75 g): 40%
osmolarity [6]: ca. 400 mosmol/L
